Converted amounts (≈) assume the structure as drawn. The source made the active and inactive calls. The calls are words filed in the database; no cut-off is given here.
Experiments:
[1] = Cytotoxicity against human HepG2 cells incubated for 96 hrs by CCK8 assay; format: cell-based
dengue virus type 2 [2] = experiment: Antiviral activity against dengue virus 2 infected in BHK21 cells incubated for 48 hrs by CFI assay; format: functional, organism-based; settings: BHK-21, 48 h
[3] = Lipophilicity, log P of the compound; format: physicochemical; settings: octanol/water
[4] = Plasma clearance in Wistar rat at 5 mg/kg, iv after 0.17 to 24 hrs by LC-MS/MS method
[5] = Absolute oral bioavailability in Wistar rat at 25 mg/kg after 0.17 to 24 hrs by LC-MS/MS method; format: ADME, organism-based; settings: in vivo
[6] = Cmax in Wistar rat at 25 mg/kg, po after 0.17 to 24 hrs by LC-MS/MS method; format: ADME, organism-based; set-up: dose 25 mg/kg, route oral; settings: in vivo
[7] = Solubility in pH 6.8 buffer
dengue virus type 2 [8] = experiment: Antiviral activity against dengue virus 2 TSV01 in AG129 mouse model of dengue viremia assessed as log reduction in virus plaques at 50 mg/kg, po BID for 3 days relative to untreated control; format: functional
[9] = AUC (0 to 24 hrs) in Wistar rat at 25 mg/kg, po after 0.17 to 24 hrs by LC-MS/MS method; format: ADME, organism-based; set-up: time < 24 hr, dose 25 mg/kg, route oral; settings: plasma
Rattus norvegicus = experiment: Volume of distribution at steady state in Wistar rat at 5 mg/kg, iv after 0.17 to 24 hrs by LC-MS/MS method; settings: in vivo
dengue virus type 2 [10] = experiment: Antiviral activity against dengue virus 2 TSV01 in AG129 mouse model of dengue viremia assessed as log reduction in virus plaques at 100 mg/kg, po QD for 3 days relative to untreated control
[11] = Half life in mouse liver microsomes; format: ADME
[12] = Tmax in Wistar rat at 25 mg/kg, po after 0.17 to 24 hrs by LC-MS/MS method; format: ADME, organism-based; set-up: dose 25 mg/kg, route oral; settings: in vivo
[13] = Terminal half-life in Wistar rat at 5 mg/kg, iv after 0.17 to 24 hrs by LC-MS/MS method; settings: in vivo, read-out: beta t1/2 (converted)
[14] = Hepatic extraction ratio in mouse liver microsomes; format: ADME; settings: read-out: ERH
dengue virus type 2 [15] = experiment: Antiviral activity against dengue virus 2 infected in human A549 cells incubated for 48 hrs by viral titer reduction assay; format: functional, organism-based; settings: A549, 48 h
dengue virus type 2 [16] = experiment: Antiviral activity against dengue virus 2 TSV01 in AG129 mouse model of dengue viremia assessed as log reduction in virus plaques at 25 mg/kg, po BID for 3 days relative to untreated control; format: functional, organism-based; set-up: dose 25 mg/kg

Structure (SMILES) | EC50 (dengue virus type 2 [2]) [µM] | CC50 at 96 h [1] [µM] | also measured
O=C1C[C@@]2(C(=O)Nc3ccc(Cl)cc32)c2cnn(Cc3ccc(Cl)cn3)c2N1 | 18.4 | > 10 | 
O=C1CC2(C(=O)Nc3ccc(Cl)cc32)c2cnn(Cc3ccc(C(F)(F)F)cc3)c2N1 (racemic) | 0.025 | > 10 | 
O=C1CC2(CNc3ccc(Cl)cc32)c2cnn(Cc3ccc(Cl)cc3)c2N1 (racemic) | 1.1 | > 10 | 
O=C1CC2(C(=O)Nc3ccc(Cl)cc32)c2cnn(CCc3ccc(Cl)cc3)c2N1 (racemic) | 7.2 | > 10 | 
O=C1C[C@]2(C(=O)Nc3ccc(Cl)cc32)c2cnn(Cc3ccc(Cl)cc3)c2N1 | 0.012 | > 10 | logP [3]: 4.9; clearance [4]: 15.1 mL/min/kg; bioavailability [5]: 33%; Cmax [6]: 780 ng/mL; solubility [7]: 11 µM (≈ 4.55 µg/mL); AUC(0-t) at 24 h [9]: 9500 ng·h/mL; Vdss (Rattus norvegicus): 4.3 L/kg; half-life [11]: 31 min; Tmax [12]: 120 min; half-life [13]: 228 min; hepatic extraction ratio [14]: 0.66; EC50 (dengue virus type 2 [15]): 0.012 µM
O=C1CC2(C(=O)Nc3ccc(Cl)cc32)c2cnn(-c3ccc(Cl)cc3)c2N1 (racemic) | 32.5 | > 10 | 
O=C1C[C@@]2(C(=O)Nc3ccc(Cl)cc32)c2cnn(Cc3ccc(Cl)cc3)c2N1 | 2.71 |  | 
C#C[C@@]1(O)[C@H](O)[C@@H](CO)O[C@H]1n1ccc2c(N)ncnc21 |  |  | inhibition (dengue virus type 2 [16]): Active
O=C1CC2(C(=O)Nc3ccc(Br)cc32)c2cnn(Cc3ccc(Cl)cc3)c2N1 (racemic) | 0.05 | > 10 | 
O=C1C[C@]2(C(=O)Nc3ccc(Cl)cc32)c2cnn(Cc3ccc(C(F)(F)F)cc3)c2N1 | 0.021 | > 10 | logP [3]: 4.1; solubility [7]: 27 µM (≈ 12.1 µg/mL); half-life [11]: 62 min; hepatic extraction ratio [14]: 0.49
O=C1CC2(C(=O)Nc3ccc(Cl)cc32)c2cnn(Cc3ccc(Cl)cc3)c2N1 (racemic) | 0.051 |  | 
CN1C(=O)CC2(C(=O)Nc3ccc(Cl)cc32)c2cnn(Cc3ccc(Cl)cc3)c21 (racemic) | 0.42 | > 10 | 

More lines, main results first:

EC50 (dengue virus type 2 [2]) [µM] | Structure (SMILES) | CC50 at 96 h [1] [µM] | also measured
6.2 | COc1ccc(Cn2ncc3c2NC(=O)CC32C(=O)Nc3ccc(Cl)cc32)cc1 (racemic) | > 10 | 
0.23 | O=C1C[C@]2(C(=O)Nc3ccc(Cl)cc32)c2cnn(Cc3ccc(Cl)cn3)c2N1 | 33 | logP [3]: 2.8; clearance [4]: 18.8 mL/min/kg; bioavailability [5]: 63%; Cmax [6]: 3860 ng/mL; solubility [7]: 504 µM (≈ 209 µg/mL); FC (dengue virus type 2 [8]): 1.9; AUC(0-t) at 24 h [9]: 13800 ng·h/mL; Vdss (Rattus norvegicus): 3 L/kg; FC (dengue virus type 2 [10]): 1.9; half-life [11]: 24 min; Tmax [12]: 10.2 min; half-life [13]: 78 min; hepatic extraction ratio [14]: 0.71; EC50 (dengue virus type 2 [15]): 0.042 µM
1.3 | O=C1CC2(C(=O)Nc3ccc(C(F)(F)F)cc32)c2cnn(Cc3ccc(Cl)cc3)c2N1 (racemic) | > 10 | 
85.3 | O=C1CC2(C(=O)Nc3ccc(Cl)cc32)c2cnn(Cc3ncc(Cl)cn3)c2N1 (racemic) | > 10 | 
2.3 | COc1ccc2c(c1)C1(CC(=O)Nc3c1cnn3Cc1ccc(Cl)cc1)C(=O)N2 (racemic) | > 10 | 
0.011 | CN1C(=O)C2(CC(=O)Nc3c2cnn3Cc2ccc(Cl)cc2)c2cc(Cl)ccc21 (racemic) | > 10 | 
0.67 | O=C1CC2(C(=O)Nc3ccc(Cl)cc32)c2cnn(Cc3ccc(Cl)cn3)c2N1 (racemic) | 33 | 
3.9 | O=C1C[C@@]2(C(=O)Nc3ccc(Cl)cc32)c2cnn(Cc3ccc(C(F)(F)F)cc3)c2N1 | > 10 | 
4 | O=C1Nc2ccc(Cl)cc2C12CCNc1c2cnn1Cc1ccc(Cl)cc1 (racemic) | 8.1 | 
22.5 | O=C1CC2(C(=O)Nc3ccc(Cl)cc32)c2cnn(CC3CCC(F)(F)CC3)c2N1 (racemic) | > 10 | 
0.006 | CN1C(=O)[C@]2(CC(=O)Nc3c2cnn3Cc2ccc(Cl)cc2)c2cc(Cl)ccc21 | > 10 | logP [3]: 4.6; solubility [7]: 161 µM (≈ 68.8 µg/mL); half-life [11]: 5.8 min; hepatic extraction ratio [14]: 0.91
1.7 | O=C1CC2(C(=O)Nc3ccc(Cl)cc32)c2cnn(Cc3ccccc3Cl)c2N1 (racemic) | > 10 | 
3.9 | O=C1CC2(C(=O)Nc3ccc(Cl)cc32)c2cnn(Cc3cccc(Cl)c3)c2N1 (racemic) | > 10 | 
32.8 | O=C1CC2(C(=O)Nc3ccc(Cl)cc32)c2cnn(Cc3ccc(Cl)nc3)c2N1 (racemic) | > 10 | 
0.772 | CN1C(=O)[C@@]2(CC(=O)Nc3c2cnn3Cc2ccc(Cl)cc2)c2cc(Cl)ccc21 | > 10 | 

From ChEMBL document CHEMBL3425504, “Lead optimization of spiropyrazolopyridones: a new and potent class of dengue virus inhibitors” (ACS Med Chem Lett, 2015)
